Experiment: Particle size distribution of milled/micronized Compound 1 crystals
Type: physicochemical
Conditions: for Particle Size D50: median size; for Particle Size D90: size for which 90% of particles are equal or smaller
Protocol: For example, Compound 1 crystals were milled (The Retsch Ultra centrifugal Mill ZM 200; Single pass, at 18,000 rpm using 0.25 mm screen) to a median particle size of about 20 micron. Table 3 presents the resultant distribution of particle sizes (Malvern 2000 with the Hydro 2000S wet accessory). The columns present the maximum size of particles in the cumulative percent total presented in the subscript at the header of the column. For example, the column D90 presents the size for which 90% of the particles have an equal or lesser size. The column D50 represents the median size—half of the particles have a greater size, and half of the particles have an equal or lesser size.
For example, Compound 1 crystals were micronized using a jet milling method (4″ Jet Mill, Venturi pressure=40, Mill pressure=100, Feed rate=1304 g/hour) to a median particle size of about 2 micron, as presented in Table 4. Particle size analysis was performed using a dry particle method (Sympatec Helos/KF Particle Size Analyzer).

Compound | Particle Size D10 [microns] | Particle Size D50 [microns] | Particle Size D90 [microns]
CC(=O)c1cc2c(o1)C(=O)c1ccccc1C2=O [Sample A, 2-acetylnaphtho[2,3-b]furan-4,9-dione] | 0.53 | 2.07 | 4.63
CC(=O)c1cc2c(o1)C(=O)c1ccccc1C2=O [Sample B, 2-acetylnaphtho[2,3-b]furan-4,9-dione] | 2.3 | 20.2 | 48.9
